Measurements taken from patent US9668985B2, “Pterosin derivative-containing therapeutic preparation for disease associated with cartilage loss, cartilage degeneration and/or cartilage thinning” (KYOTO UNIVERSITY, priority 2013, dated 2017).
“Also recorded” adds a separate entry of the source. Values belong to the compound of their own block, whether it stands above or below them.

Assays:
SIK3 = SIK3 (Homo sapiens, UniProt Q9Y2K2); test: CRTC2 activity as a measure of SIK3 inhibitory activity; assay type: cell-based; settings: 150 μM
Sequence of SIK3 (Q9Y2K2 whole entry, species assumed): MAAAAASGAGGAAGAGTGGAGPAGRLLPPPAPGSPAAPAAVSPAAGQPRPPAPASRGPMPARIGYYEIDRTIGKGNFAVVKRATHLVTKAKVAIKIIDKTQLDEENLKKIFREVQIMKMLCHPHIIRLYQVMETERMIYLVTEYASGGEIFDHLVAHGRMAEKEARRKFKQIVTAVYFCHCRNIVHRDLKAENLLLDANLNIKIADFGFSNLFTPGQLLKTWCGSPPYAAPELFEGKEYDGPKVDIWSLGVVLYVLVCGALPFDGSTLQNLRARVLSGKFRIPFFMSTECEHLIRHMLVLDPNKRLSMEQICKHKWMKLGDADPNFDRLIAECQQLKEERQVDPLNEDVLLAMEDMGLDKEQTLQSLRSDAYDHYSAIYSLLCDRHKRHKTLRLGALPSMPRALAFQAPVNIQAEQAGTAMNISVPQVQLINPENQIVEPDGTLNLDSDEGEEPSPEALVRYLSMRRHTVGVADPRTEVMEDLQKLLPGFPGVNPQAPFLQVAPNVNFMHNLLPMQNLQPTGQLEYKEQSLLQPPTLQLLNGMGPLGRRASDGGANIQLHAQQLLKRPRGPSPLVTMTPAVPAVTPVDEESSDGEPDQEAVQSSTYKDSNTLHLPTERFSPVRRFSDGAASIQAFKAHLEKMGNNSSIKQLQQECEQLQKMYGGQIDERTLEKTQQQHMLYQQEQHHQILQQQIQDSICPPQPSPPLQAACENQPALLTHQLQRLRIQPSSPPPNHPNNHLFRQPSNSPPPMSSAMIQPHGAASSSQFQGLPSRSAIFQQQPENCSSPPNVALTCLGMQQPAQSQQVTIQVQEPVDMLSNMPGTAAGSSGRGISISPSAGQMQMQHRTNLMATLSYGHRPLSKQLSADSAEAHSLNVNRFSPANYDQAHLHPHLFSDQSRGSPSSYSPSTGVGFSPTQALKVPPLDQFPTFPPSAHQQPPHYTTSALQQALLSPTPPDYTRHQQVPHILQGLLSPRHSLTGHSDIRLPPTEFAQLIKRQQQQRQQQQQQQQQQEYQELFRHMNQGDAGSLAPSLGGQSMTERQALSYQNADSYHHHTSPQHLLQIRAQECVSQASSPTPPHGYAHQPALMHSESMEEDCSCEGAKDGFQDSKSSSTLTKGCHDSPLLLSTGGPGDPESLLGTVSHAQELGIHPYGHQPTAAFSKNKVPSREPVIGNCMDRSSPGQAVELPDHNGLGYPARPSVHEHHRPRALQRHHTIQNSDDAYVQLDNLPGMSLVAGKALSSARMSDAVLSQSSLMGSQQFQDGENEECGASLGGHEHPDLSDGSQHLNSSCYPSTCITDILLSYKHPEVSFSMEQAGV
Method: Comparative evaluation of pterosin derivatives was performed in terms of the inhibitory effect on SIK3 signaling. As a measure of the SIK3 inhibitory activity, the induced activity of the transcription coupling factor CRTC2 (which is also referred to as TORC2, serves as a coupling factor of the transcription factor CREB, and is an inhibition target of SIK3) was measured according to the method described in PCT/JP2012/063709.

[1] = tested on: mouse primary chondrocytes; test: quantitative RT-PCR in pellet-cultured mouse primary chondrocytes; assay type: cell-based; settings: for mRNA amount of Col10a1 relative to Gapdh: cell pellet, 300 μM, 2 or 4 weeks after addition
Method: (§1) Primary chondrocytes obtained from the distal femoral epiphyseal cartilage and the proximal tibial epiphyseal cartilage of 1- to 5-day-old mice were pelletized by centrifugation, and to the cell pellet, the extracted pterosin B at a given concentration (0 μM (only DMSO as a vehicle), 100 μM, 200 μM or 300 μM) was added in DMEM supplemented with 10% fetal calf serum. […] In addition, the mRNA amounts of Col2a1, Col10a1 and Sik3 relative to Gapdh in the cell pellet were measured by quantitative RT-PCR. […] Col2a1 is a gene relevant to […], and Col10a1 is a gene indicative of hypertrophic differentiation of chondrocytes.
In the same manner as in Example 1, primary chondrocytes obtained from 1- to 5-day-old mice were pelletized, and to the cell pellet, a pterosin derivative (synthesized pterosin B or pterosin Z) at 300 μM was added in DMEM supplemented with 10% fetal calf serum. At 2 or 4 weeks after the addition, the cell pellet was collected and the mRNA amount of Col10a1 relative to Gapdh was measured by quantitative RT-PCR. As a result, it was shown that Col10a1 was decreased by the addition of pterosin Z as well as the addition of the synthesized pterosin B (FIG. 9).

human chondrocytes [2] = test: quantitative RT-PCR in pellet-cultured human primary chondrocytes; assay type: cell-based; settings: 300 μM, pellet culture 2 weeks
Method: (§2) Chondrocytes collected from a person with medial compartmental idiopathic osteonecrosis under informed consent were cultured in DMEM (Dulbecco's Modified Eagle's Medium) supplemented with 10% fetal calf serum for 7 days (an image of a 3-day culture is shown in FIG. 5A), and then pelletized by centrifugation (FIG. 5A). The human chondrocyte pellet was cultured in DMEM supplemented with 10% fetal calf serum and 300 μM of the extracted pterosin B for 14 or 28 days. The cell pellet was collected and then stained with safranin O. As a result, it was shown that the staining intensity in the presence of the extracted pterosin B was increased on and after 14 days from the addition of the extracted pterosin B (FIG. 5B). In addition, the mRNA amounts of COL2A1, COL11A2, ACAN, SOX9, COL10A1 and COL1A1 relative to GAPDH in the cell pellet were measured by quantitative RT-PCR. As a result, the mRNA amounts of COL2A1, COL11A2, ACAN and SOX9 were increased by the addition of the […] pterosin B, while the mRNA amounts of COL10A1 and COL1A1 were decreased by the addition of the extracted pterosin B (FIG. 6). […] Therefore, pterosin B is considered to have the effect of promoting hyaline cartilage growth in humans as well.

[3] = tested on: mouse primary chondrocytes; test: safranin O staining of pellet-cultured mouse primary chondrocytes; assay type: cell-based; settings: cell pellet, 100, 200 or 300 μM, 28 days after addition
Method: as §1

[4] = tested on: embryonic mouse metatarsal bone; test: tissue culture of embryonic mouse metatarsal bone, safranin O, BrdU and Col10a1 staining; assay type: cell-based; settings: 300 μM, 7 days
Method: The metatarsal bone was isolated from a mouse embryo of E15.5, and tissue culture of the bone was performed in DMEM supplemented with 10% fetal calf serum. To the culture medium, 300 μM of the extracted pterosin B or the synthesized pterosin B was added, and the culture was further continued. Seven days later, the metatarsal bone was collected and its histological sections were prepared. At 8 hours before the collection of the metatarsal bone, BrdU was added to the culture medium. The histological sections of the metatarsal bone were stained with safranin O and immunostained with an anti-BrdU antibody. As a result, it was shown that, in the presence of the extracted pterosin B or the synthesized pterosin B, the safranin O-stained area and the BrdU-positive cell number were increased (FIGS. 2 and 3). Meanwhile, the number of hypertrophic chondrocytes was decreased in the presence of the extracted pterosin B or the synthesized pterosin B (FIG. 4).

human chondrocytes [5] = test: safranin O staining of pellet-cultured human primary chondrocytes; assay type: cell-based; settings: 300 μM, on and after 14 days (14 or 28 days)
Method: as §2

[6] = tested on: articular cartilage on the medial femoral epicondyle; test: intra-articular administration into the knee of C57BL/6 mice, articular cartilage histology; assay type: in vivo, mouse; settings: 3 times a week, 4 weeks
Excerpt: After the administration was continued for 4 weeks, the knee joint was dissected and then stained with safranin O/fast green/iron hematoxylin.

[7] = cell pellet, 100, 200 or 300 μM, 28 days

- SIK3 inhibitory activity (induced activity of CRTC2) (SIK3): highly active than pterosin B
SMILES: COCCc1c(C)cc2c(c1C)C(=O)C(C)(C)C2 [pterosin I]

SMILES: Cc1cc2c(c(C)c1CCO)C(=O)C(C)C2 (stereo not shown) [synthesized pterosin B, pterosin B]
- mRNA amount of Col10a1 relative to Gapdh [1]: decreased
- mRNA amount of ACAN relative to GAPDH (human chondrocytes [2]): increased
- mRNA amount of COL2A1 relative to GAPDH (human chondrocytes [2]): increased
- mRNA amount of COL11A2 relative to GAPDH (human chondrocytes [2]): increased
- mRNA amount of SOX9 relative to GAPDH (human chondrocytes [2]): increased

SMILES: Cc1c(O)c2c(c(C)c1CCCl)C(=O)C(C)(C)C2 [14-chloro-onitin, 14-deoxy-14-chloroonitin]
- SIK3 inhibitory activity (induced activity of CRTC2) (SIK3): highly active than pterosin B

- SIK3 inhibitory activity (induced activity of CRTC2) (SIK3): highly active than pterosin B
SMILES: COCCc1c(C)cc2c(c1C)C(=O)C(OC)C2 (stereo not shown) [14-O-methyl-pterosin G, 14-O-methylpterosin G]

SMILES: Cc1cc2c(c(C)c1CCO)C(=O)C(C)(C)C2 [pterosin Z]
- SIK3 inhibitory activity (induced activity of CRTC2) (SIK3): highly active than pterosin B
- mRNA amount of Col10a1 relative to Gapdh [1]: decreased

SMILES: Cc1cc2c(c(C)c1CCO)C(=O)C(C)C2 (stereo not shown) [extracted pterosin B, pterosin B]
- safranin O staining intensity [3]: increased with increasing concentration
- number of hypertrophic chondrocytes [4]: decreased
- safranin O-stained area [4]: increased
- BrdU-positive cell number ([4]; BrdU 8 hours before collection): increased
- safranin O staining intensity (human chondrocytes [5]): increased
- amount of Col2a1 mRNA relative to Gapdh [1, 7]: increased with increasing concentration
- amount of Col10a1 mRNA relative to Gapdh [1, 7]: decreased with increasing concentration
- Findings of medial femoral epicondyle ([6]; 300 μM into left knee articular cavity, one line per mouse (No. 4-7)): No apparent abnormalities; also recorded: Moderate osteoarthritis
- Findings of medial femoral epicondyle ([6]; 900 μM into left knee articular cavity, one line per mouse (No. 8-11)): No apparent abnormalities; also recorded: Moderate osteoarthritis
- mRNA amount of COL1A1 relative to GAPDH (human chondrocytes [2]): decreased
- mRNA amount of COL10A1 relative to GAPDH (human chondrocytes [2]): decreased

- SIK3 inhibitory activity (induced activity of CRTC2) (SIK3): highly active than pterosin B
SMILES: COCCc1c(C)c(O)c2c(c1C)C(=O)C(C)(C)C2 [14-O-methyl-onitin, 14-O-methylonitin]

SMILES: Cc1cc2c(c(C)c1CCO)C(=O)C(C)C2 (stereo not shown) [pterosin B]
- SIK3 inhibitory activity (induced activity of CRTC2) (SIK3): slightly inhibit
- area of the articular cartilage on the medial femoral epicondyle ([6]; 300 μM or 900 μM intra-articular): increased with increasing concentration

- SIK3 inhibitory activity (induced activity of CRTC2) (SIK3): highly active than pterosin B
SMILES: Cc1c(O)c2c(c(C)c1CCO)C(=O)C(C)(C)C2 [onitin]
